Source: ChEMBL document CHEMBL3397028, “Synthesis and antimicrobial activity of novel benzoxazine sulfonamide derivatives” (2015)
Converted amounts (≈) assume the structure as drawn.

Columns and labels:
Assay type in all cases: functional
Candida albicans = test: Antimicrobial activity against Candida albicans MTCC 183 after 48 to 72 hrs by broth micro dilution method
Priestia megaterium = test: Antimicrobial activity against Bacillus megaterium MTCC 3382 after 18 hrs by broth micro dilution method; conditions: MTCC 3382, 18 h
Pseudomonas aeruginosa = test: Antimicrobial activity against Pseudomonas aeruginosa MTCC 1034 after 18 hrs by broth micro dilution method; conditions: MTCC 1034, 18 h
Escherichia coli = test: Antimicrobial activity against Escherichia coli MTCC 1089 after 18 hrs by broth micro dilution method; conditions: MTCC 1089, 18 h
Xanthomonas campestris = test: Antimicrobial activity against Xanthomonas campestris after 18 hrs by broth micro dilution method

SMILES | MIC (Candida albicans) | MIC (Priestia megaterium) | MIC (Pseudomonas aeruginosa) | MIC (Escherichia coli) | MIC (Xanthomonas campestris)
O=C1COc2ccc(S(=O)(=O)NCCCN3CCN(c4ccccc4)CC3)cc2N1 | 500 µg/mL (≈ 1160 µM) | 250 µg/mL (≈ 581 µM) | 500 µg/mL (≈ 1160 µM) | 500 µg/mL (≈ 1160 µM) | 500 µg/mL (≈ 1160 µM)
O=C1COc2ccc(S(=O)(=O)NCCCN3CCN(c4ccc(C(F)(F)F)cc4)CC3)cc2N1 | 125 µg/mL (≈ 251 µM) | 62.5 µg/mL (≈ 125 µM) | 125 µg/mL (≈ 251 µM) | 500 µg/mL (≈ 1000 µM) | 125 µg/mL (≈ 251 µM)
COc1ccccc1N1CCN(CCCNS(=O)(=O)c2ccc3c(c2)NC(=O)CO3)CC1 | 62.5 µg/mL (≈ 136 µM) | 31.2 µg/mL (≈ 67.9 µM) | 125 µg/mL (≈ 271 µM) | 250 µg/mL (≈ 543 µM) | 125 µg/mL (≈ 271 µM)
O=C1COc2ccc(S(=O)(=O)NCCCN3CCN(c4ccccc4F)CC3)cc2N1 | 125 µg/mL (≈ 279 µM) | 31.2 µg/mL (≈ 69.7 µM) | 62.5 µg/mL (≈ 139 µM) | 125 µg/mL (≈ 279 µM) | 62.5 µg/mL (≈ 139 µM)
O=C1COc2ccc(S(=O)(=O)NCCCN3CCN(c4ccc(F)cc4)CC3)cc2N1 | 250 µg/mL (≈ 557 µM) | 250 µg/mL (≈ 557 µM) | 62.5 µg/mL (≈ 139 µM) | 500 µg/mL (≈ 1110 µM) | 125 µg/mL (≈ 279 µM)
Cc1cc2c(cc1S(=O)(=O)NCCCN1CCN(c3ccc(C(F)(F)F)cc3)CC1)NC(=O)CO2 | 125 µg/mL (≈ 244 µM) | 62.5 µg/mL (≈ 122 µM) | 250 µg/mL (≈ 488 µM) | 250 µg/mL (≈ 488 µM) | 62.5 µg/mL (≈ 122 µM)
COc1ccccc1N1CCN(CCCNS(=O)(=O)c2cc3c(cc2C)OCC(=O)N3)CC1 | 250 µg/mL (≈ 527 µM) | 250 µg/mL (≈ 527 µM) | 500 µg/mL (≈ 1050 µM) | 500 µg/mL (≈ 1050 µM) | 500 µg/mL (≈ 1050 µM)
Cc1cc2c(cc1S(=O)(=O)NCCCN1CCN(c3ccccc3F)CC1)NC(=O)CO2 | 250 µg/mL (≈ 540 µM) | 250 µg/mL (≈ 540 µM) | 250 µg/mL (≈ 540 µM) | 250 µg/mL (≈ 540 µM) | 250 µg/mL (≈ 540 µM)
Cc1cc2c(cc1S(=O)(=O)NCCCN1CCN(c3ccccc3)CC1)NC(=O)CO2 | 250 µg/mL (≈ 562 µM) | 250 µg/mL (≈ 562 µM) | 250 µg/mL (≈ 562 µM) | 250 µg/mL (≈ 562 µM) | 250 µg/mL (≈ 562 µM)
Cc1cc2c(cc1S(=O)(=O)NCCCN1CCSCC1)NC(=O)CO2 | 250 µg/mL (≈ 648 µM) | 125 µg/mL (≈ 324 µM) | 500 µg/mL (≈ 1300 µM) | 500 µg/mL (≈ 1300 µM) | 250 µg/mL (≈ 648 µM)
Cc1cc2c(cc1S(=O)(=O)N1CCN(c3ccc(C(F)(F)F)cc3)CC1)N(CC(=O)c1ccc(-c3ccccc3)cc1)C(=O)CO2 | 125 µg/mL (≈ 192 µM) | 125 µg/mL (≈ 192 µM) | 125 µg/mL (≈ 192 µM) | 250 µg/mL (≈ 385 µM) | 125 µg/mL (≈ 192 µM)
Cc1cc2c(cc1S(=O)(=O)N1CCN(c3ccc(C(F)(F)F)cc3)CC1)N(CC(=O)c1ccccc1)C(=O)CO2 | 250 µg/mL (≈ 436 µM) | 250 µg/mL (≈ 436 µM) | 250 µg/mL (≈ 436 µM) | 250 µg/mL (≈ 436 µM) | 250 µg/mL (≈ 436 µM)
Cc1ccc(C(=O)CN2C(=O)COc3cc(C)c(S(=O)(=O)N4CCN(c5ccc(C(F)(F)F)cc5)CC4)cc32)cc1 | 250 µg/mL (≈ 425 µM) | 125 µg/mL (≈ 213 µM) | 31.2 µg/mL (≈ 53.2 µM) | 62.5 µg/mL (≈ 106 µM) | 125 µg/mL (≈ 213 µM)
Cc1cc2c(cc1S(=O)(=O)N1CCN(c3ccc(C(F)(F)F)cc3)CC1)N(CC(=O)c1ccc([N+](=O)[O-])cc1)C(=O)CO2 | 31.2 µg/mL (≈ 50.5 µM) | 31.2 µg/mL (≈ 50.5 µM) | 31.2 µg/mL (≈ 50.5 µM) | 62.5 µg/mL (≈ 101 µM) | 125 µg/mL (≈ 202 µM)
COc1ccc(C(=O)CN2C(=O)COc3cc(C)c(S(=O)(=O)N4CCN(c5ccc(C(F)(F)F)cc5)CC4)cc32)cc1 | 250 µg/mL (≈ 414 µM) | 62.5 µg/mL (≈ 104 µM) | 125 µg/mL (≈ 207 µM) | 250 µg/mL (≈ 414 µM) | 250 µg/mL (≈ 414 µM)
Cc1cc2c(cc1S(=O)(=O)N1CCN(c3ccc(C(F)(F)F)cc3)CC1)N(CC(=O)c1ccc(Cl)cc1)C(=O)CO2 | 500 µg/mL (≈ 822 µM) | 250 µg/mL (≈ 411 µM) | 500 µg/mL (≈ 822 µM) | 500 µg/mL (≈ 822 µM) | 500 µg/mL (≈ 822 µM)
Cc1cc2c(cc1S(=O)(=O)N1CCN(c3ccc(C(F)(F)F)cc3)CC1)N(CC(=O)c1cccs1)C(=O)CO2 | 31.2 µg/mL (≈ 53.9 µM) | 31.2 µg/mL (≈ 53.9 µM) | 31.2 µg/mL (≈ 53.9 µM) | 125 µg/mL (≈ 216 µM) | 125 µg/mL (≈ 216 µM)
COc1ccccc1N1CCN(S(=O)(=O)c2cc3c(cc2C)OCC(=O)N3CC(=O)c2ccc(-c3ccccc3)cc2)CC1 | 500 µg/mL (≈ 817 µM) | 62.5 µg/mL (≈ 102 µM) | 250 µg/mL (≈ 409 µM) | 500 µg/mL (≈ 817 µM) | 125 µg/mL (≈ 204 µM)
COc1ccccc1N1CCN(S(=O)(=O)c2cc3c(cc2C)OCC(=O)N3CC(=O)c2ccccc2)CC1 | 62.5 µg/mL (≈ 117 µM) | 62.5 µg/mL (≈ 117 µM) | 125 µg/mL (≈ 233 µM) | 125 µg/mL (≈ 233 µM) | 62.5 µg/mL (≈ 117 µM)
COc1ccccc1N1CCN(S(=O)(=O)c2cc3c(cc2C)OCC(=O)N3CC(=O)c2ccc(C)cc2)CC1 | 62.5 µg/mL (≈ 114 µM) | 125 µg/mL (≈ 227 µM) | 62.5 µg/mL (≈ 114 µM) | 62.5 µg/mL (≈ 114 µM) | 125 µg/mL (≈ 227 µM)
COc1ccccc1N1CCN(S(=O)(=O)c2cc3c(cc2C)OCC(=O)N3CC(=O)c2ccc([N+](=O)[O-])cc2)CC1 | 250 µg/mL (≈ 431 µM) | 62.5 µg/mL (≈ 108 µM) | 250 µg/mL (≈ 431 µM) | 250 µg/mL (≈ 431 µM) | 125 µg/mL (≈ 215 µM)
COc1ccc(C(=O)CN2C(=O)COc3cc(C)c(S(=O)(=O)N4CCN(c5ccccc5OC)CC4)cc32)cc1 | 31.2 µg/mL (≈ 55.2 µM) | 31.2 µg/mL (≈ 55.2 µM) | 31.2 µg/mL (≈ 55.2 µM) | 62.5 µg/mL (≈ 110 µM) | 62.5 µg/mL (≈ 110 µM)
COc1ccccc1N1CCN(S(=O)(=O)c2cc3c(cc2C)OCC(=O)N3CC(=O)c2ccc(Cl)cc2)CC1 | 250 µg/mL (≈ 439 µM) | 250 µg/mL (≈ 439 µM) | 250 µg/mL (≈ 439 µM) | 250 µg/mL (≈ 439 µM) | 125 µg/mL (≈ 219 µM)
COc1ccccc1N1CCN(S(=O)(=O)c2cc3c(cc2C)OCC(=O)N3CC(=O)c2cccs2)CC1 | 250 µg/mL (≈ 462 µM) | 500 µg/mL (≈ 923 µM) | 250 µg/mL (≈ 462 µM) | 250 µg/mL (≈ 462 µM) | 250 µg/mL (≈ 462 µM)
Cc1cc2c(cc1S(=O)(=O)N1CCN(c3ccc(C(F)(F)F)cc3)CC1)NC(=O)CO2 | 500 µg/mL (≈ 1100 µM) | 250 µg/mL (≈ 549 µM) | 250 µg/mL (≈ 549 µM) | 500 µg/mL (≈ 1100 µM) | 500 µg/mL (≈ 1100 µM)
COc1ccccc1N1CCN(S(=O)(=O)c2cc3c(cc2C)OCC(=O)N3)CC1 | 500 µg/mL (≈ 1200 µM) | 250 µg/mL (≈ 599 µM) | 500 µg/mL (≈ 1200 µM) | 500 µg/mL (≈ 1200 µM) | 500 µg/mL (≈ 1200 µM)
OC(Cn1cncn1)(Cn1cncn1)c1ccc(F)cc1F [FLUCONAZOLE] | 32 µg/mL (≈ 104 µM) |  |  |  | 
CO[C@H]1/C=C/O[C@@]2(C)Oc3c(C)c(O)c4c(O)c(c(/C=N/N5CCN(C)CC5)c(O)c4c3C2=O)NC(=O)/C(C)=C\C=C\[C@H](C)[C@H](O)[C@@H](C)[C@@H](O)[C@@H](C)[C@H](OC(C)=O)[C@@H]1C [RIFAMPIN] |  | 64 µg/mL (≈ 77.8 µM) | 32 µg/mL (≈ 38.9 µM) | 64 µg/mL (≈ 77.8 µM) | 32 µg/mL (≈ 38.9 µM)
